Several values for one entry are separate records, joined by “and”; a condition that tells them apart may be missing. Equal entries are not always repeated.
What was measured:
MeV = details: depending on the MeV-strain; read-out: in vitro EC50; cited from earlier work
MeV N gene RNA = assay: Quantitative RT-PCR of MeV N-gene RNA in lymph nodes; type: in vivo; details: for MeV N-gene RNA levels in lymph nodes versus untreated: 21 days post-infection
Experimental: Organs (21 days post-infection) and PBMCs (twice a week) were frozen in RNAlater (Qiagen) at −80 °C until further processing. For the deceased animal, organs were frozen in RNAlater at the day of death. Lymph nodes were thawed on ice, transferred to TRIzol (ambion life technologies) and homogenized using a tissue homogenizer. Total RNA of lymph nodes and PBMCs was extracted following the TRIzol manufacturer’s protocol. RNA (1000 ng for lymph nodes; 110 ng for PBMCs) was then subjected to reverse transcription using random hexamer primers and Superscript III reverse transcriptase in accordance with the manufacturer’s protocols. Subsequent quantitative PCR (qPCR) was carried out using primer pairs specific for a fragment in the MeV N gene[23] or GAPDH gene(Supplementary Table 2) and the PowerUp SYBR Green Master Mix (Thermo Fisher Scientific) in an Applied Biosystems 7500 Real-Time PCR system. Samples were normalized for GAPDH. The comparative (ΔΔCt) Ct method was applied to determine relative amounts of N-encoding RNA present in samples from treated animals compared to those obtained from untreated control animals (lymph nodes) or compared to those obtained from untreated control animals on day 7 post-infection (peak PBMC virus titer).

[1] = test system: MV/FrankfurtMain.DEU/17.11 (genotype D8); assay: White blood cell counts from whole blood; type: in vivo, squirrel monkeys (Saimiri sciureus); details: for WBC Mean Diff, untreated vs. prophylactic / WBC Mean Diff, untreated vs. therapeutic (d7) / WBC Mean Diff, untreated vs. therapeutic(d3): Dunnett's multiple comparisons test; for Cells [10^3/mm^3], white blood cells / Cells/ml, white blood cells / Counted Cells (Total), white blood cells: individual animals
Experimental: White blood cell counts, viral load quantification in PBMCs, and quantification of neutralizing antibody titers were performed as follows: for white blood cell counts, blood was diluted 1:100 in 3% acetic acid and cells were counted using a Neubauer chamber. For viral load quantification in PBMCs, blood was centrifuged at 3000 rpm for 15 min and serum was frozen at −20 °C until further use. Red blood cell lysis was performed and the remaining PBMCs were counted using a Neubauer chamber. Viral titers in PBMCs were quantified in quadruplicates using limited dilution method and calculated as TCID50/10^6 PBMCs. Neutralizing antibody titers were quantified by incubating MeV with 2-fold serial dilutions of the respective serum for 20 min at room temperature in quadruplicates. Vero/hSLAM cells were added and incubated for 3 days at 37 °C. Neutralizing antibody titers are expressed as the reciprocal of the highest serum dilution showing no signs of infection. For virus titration from throat swabs, swabs were placed in 150 μl DMEM with 3% penicillin/streptomycin and the titer was quantified by limited dilution method.

**Q.** With `Cn1nc(C(F)(F)F)cc1C(=O)Nc1ccc(S(=O)(=O)N2CCCC[C@H]2CCN2CCOCC2)cc1` [ERDRP-0519] as the compound, how does the EC50 (MeV) read?
**A.** The EC50 was 0.07 to 0.3 µM.

**Q.** And the “Lymph node fold difference, group mean (Mean 2)” value (MeV N gene RNA; prophylactic)?
**A.** Its value is 0.06859.

**Q.** And the “fold difference (Lymph node MeV N RNA), individual animals” value (“fold difference (Lymph node MeV N RNA)” for short) (MeV N gene RNA; prophylactic)?
**A.** Its value is 0.002631 and 0.0102 and 0.1018 and 0.01292 and 0.2776 and 0.00638.

**Q.** And the “MeV N-gene RNA levels in lymph nodes versus untreated” value (MeV N gene RNA; prophylactic group, p = 0.0295)?
**A.** The value was “significantly decreased”.

**Q.** What about the “Lymph node fold difference, group mean (Mean 2)” value (MeV N gene RNA; therapeutic (d3)) of the same compound?
**A.** The value was 0.1137.

**Q.** What about the “fold difference (Lymph node MeV N RNA)” value (MeV N gene RNA; therapeutic (d3)) of the same compound?
**A.** The value was 0.5644 and 0.005805 and 0.02288 and 0.01111 and 0.0007117 and 0.07727.

**Q.** What about the “Lymph node fold difference, group mean (Mean 2)” value (MeV N gene RNA; therapeutic (d7)) of the same compound?
**A.** The value was 0.7008.

**Q.** What about the “fold difference (Lymph node MeV N RNA)” value (MeV N gene RNA; therapeutic (d7)) of the same compound?
**A.** Its value is 1.441 and 0.8274 and 0.2474 and 0.8349 and 0.2786 and 0.5749.

**Q.** What about the “MeV N-gene RNA levels in lymph nodes versus untreated” value (MeV N gene RNA; therapeutic day 3 group, p = 0.0346) of the same compound?
**A.** Its value is “significantly decreased”.

**Q.** What about the “Lymph node fold difference, Mean Diff,” value (MeV N gene RNA; untreated vs. prophylactic) of the same compound?
**A.** Its value is 1.828.

**Q.** And the “Lymph node fold difference, Mean Diff,” value (MeV N gene RNA; untreated vs. therapeutic (d3))?
**A.** The value was 1.783.

**Q.** And the “Lymph node fold difference, Mean Diff,” value (MeV N gene RNA; untreated vs. therapeutic (d7))?
**A.** Its value is 1.196.

**Q.** What about the “WBC Mean Diff, untreated vs. prophylactic” value ([1]; Row 1 (0 dpi)) of the same compound?
**A.** The value was 0.14 10^3cells/mm^3.

**Q.** And the “WBC Mean Diff, untreated vs. therapeutic (d7)” value ([1]; Row 1 (0 dpi))?
**A.** Its value is 2 10^3cells/mm^3.

**Q.** And the “WBC Mean Diff, untreated vs. therapeutic(d3)” value ([1]; Row 1 (0 dpi))?
**A.** The value was 0.75 10^3cells/mm^3.

**Q.** And the “WBC Mean Diff, untreated vs. prophylactic” value ([1]; Row 2 (3 dpi))?
**A.** Its value is 0.875 10^3cells/mm^3.

**Q.** What about the “WBC Mean Diff, untreated vs. therapeutic (d7)” value ([1]; Row 2 (3 dpi)) of the same compound?
**A.** Its value is -2.625 10^3cells/mm^3.

**Q.** And the “WBC Mean Diff, untreated vs. therapeutic(d3)” value ([1]; Row 2 (3 dpi))?
**A.** The value was -1.042 10^3cells/mm^3.

**Q.** And the “WBC Mean Diff, untreated vs. prophylactic” value ([1]; Row 3 (7 dpi))?
**A.** The value was -2.333 10^3cells/mm^3.

**Q.** And the “WBC Mean Diff, untreated vs. therapeutic (d7)” value ([1]; Row 3 (7 dpi))?
**A.** The value was -0.3333 10^3cells/mm^3.

**Q.** And the “WBC Mean Diff, untreated vs. therapeutic(d3)” value ([1]; Row 3 (7 dpi))?
**A.** Its value is -1.375 10^3cells/mm^3.

**Q.** What about the “WBC Mean Diff, untreated vs. prophylactic” value ([1]; Row 4 (10 dpi)) of the same compound?
**A.** The value was -1.958 10^3cells/mm^3.

**Q.** What about the “WBC Mean Diff, untreated vs. therapeutic (d7)” value ([1]; Row 4 (10 dpi)) of the same compound?
**A.** Its value is -0.5417 10^3cells/mm^3.

**Q.** What about the “WBC Mean Diff, untreated vs. therapeutic(d3)” value ([1]; Row 4 (10 dpi)) of the same compound?
**A.** The value was -1.167 10^3cells/mm^3.

**Q.** What about the “WBC Mean Diff, untreated vs. prophylactic” value ([1]; Row 5 (14 dpi)) of the same compound?
**A.** Its value is -1.375 10^3cells/mm^3.

**Q.** What about the “WBC Mean Diff, untreated vs. therapeutic (d7)” value ([1]; Row 5 (14 dpi)) of the same compound?
**A.** Its value is -0.25 10^3cells/mm^3.

**Q.** What about the “WBC Mean Diff, untreated vs. therapeutic(d3)” value ([1]; Row 5 (14 dpi)) of the same compound?
**A.** Its value is -4.767 10^3cells/mm^3.

**Q.** What about the “WBC Mean Diff, untreated vs. prophylactic” value ([1]; Row 6 (17 dpi)) of the same compound?
**A.** The value was -1.667 10^3cells/mm^3.

**Q.** What about the “WBC Mean Diff, untreated vs. therapeutic (d7)” value ([1]; Row 6 (17 dpi)) of the same compound?
**A.** The value was -1.333 10^3cells/mm^3.

**Q.** And the “WBC Mean Diff, untreated vs. therapeutic(d3)” value ([1]; Row 6 (17 dpi))?
**A.** The value was -1.533 10^3cells/mm^3.

**Q.** And the “WBC Mean Diff, untreated vs. prophylactic” value ([1]; Row 7 (21 dpi))?
**A.** The value was -1.125 10^3cells/mm^3.

**Q.** What about the “WBC Mean Diff, untreated vs. therapeutic (d7)” value ([1]; Row 7 (21 dpi)) of the same compound?
**A.** Its value is -1.875 10^3cells/mm^3.

**Q.** And the “WBC Mean Diff, untreated vs. therapeutic(d3)” value ([1]; Row 7 (21 dpi))?
**A.** The value was -2.402 10^3cells/mm^3.

**Q.** What about the “leukopenia (total white blood cell counts)” value ([1]; day 3 treatment group) of the same compound?
**A.** Its value is “no leukopenia was observed”.

**Q.** What about the “total white blood cell counts” value ([1]; day 7 treatment group) of the same compound?
**A.** Its value is “a trend for lower total white blood cell counts, but this was not significant”.

**Q.** And the “leukopenia (total white blood cell counts)” value ([1]; prophylactic group)?
**A.** The value was “no leukopenia was observed”.

**Q.** What about the “Cells [10^3/mm^3], white blood cells” value ([1]; prophylactic group, 0 dpi) of the same compound?
**A.** Its value is 7.5 10^3/mm^3 and 4.5 10^3/mm^3 and 5.5 10^3/mm^3 and 2.25 10^3/mm^3 and 10.75 10^3/mm^3.

**Q.** And the “Cells/ml, white blood cells” value ([1]; prophylactic group, 0 dpi)?
**A.** Its value is 4.50E+06 Cells/ml and 5.50E+06 Cells/ml and 2.25E+06 Cells/ml and 1.08E+07 Cells/ml and 7.50E+06 Cells/ml.

**Q.** And the “Counted Cells (Total), white blood cells” value ([1]; prophylactic group, 0 dpi)?
**A.** Its value is 30 and 18 and 22 and 9 and 43.

**Q.** What about the “Cells [10^3/mm^3], white blood cells” value ([1]; prophylactic group, 3 dpi) of the same compound?
**A.** The value was 4.75 10^3/mm^3 (3×) and 4.25 10^3/mm^3 and 4 10^3/mm^3 and 7.25 10^3/mm^3.

**Q.** What about the “Cells/ml, white blood cells” value ([1]; prophylactic group, 3 dpi) of the same compound?
**A.** Its value is 4.75E+06 Cells/ml (3×) and 4.25E+06 Cells/ml and 4.00E+06 Cells/ml and 7.25E+06 Cells/ml.

**Q.** And the “Counted Cells (Total), white blood cells” value ([1]; prophylactic group, 3 dpi)?
**A.** The value was 19 (3×) and 17 and 16 and 29.

**Q.** What about the “Cells [10^3/mm^3], white blood cells” value ([1]; prophylactic group, 7 dpi) of the same compound?
**A.** The value was 6 10^3/mm^3 (2×) and 7 10^3/mm^3 and 4.75 10^3/mm^3 (2×) and 6.75 10^3/mm^3.

**Q.** And the “Cells/ml, white blood cells” value ([1]; prophylactic group, 7 dpi)?
**A.** The value was 6.00E+06 Cells/ml (2×) and 7.00E+06 Cells/ml and 4.75E+06 Cells/ml (2×) and 6.75E+06 Cells/ml.

**Q.** What about the “Counted Cells (Total), white blood cells” value ([1]; prophylactic group, 7 dpi) of the same compound?
**A.** Its value is 24 (2×) and 28 and 19 (2×) and 27.

**Q.** What about the “Cells [10^3/mm^3], white blood cells” value ([1]; prophylactic group, 10 dpi) of the same compound?
**A.** The value was 4.75 10^3/mm^3 (2×) and 6.5 10^3/mm^3 and 3 10^3/mm^3 and 3.75 10^3/mm^3 and 2 10^3/mm^3.

**Q.** And the “Cells/ml, white blood cells” value ([1]; prophylactic group, 10 dpi)?
**A.** The value was 4.75E+06 Cells/ml (2×) and 6.50E+06 Cells/ml and 3.00E+06 Cells/ml and 3.75E+06 Cells/ml and 2.00E+06 Cells/ml.

**Q.** What about the “Counted Cells (Total), white blood cells” value ([1]; prophylactic group, 10 dpi) of the same compound?
**A.** Its value is 19 (2×) and 26 and 12 and 15 and 8.

**Q.** And the “Cells [10^3/mm^3], white blood cells” value ([1]; prophylactic group, 14 dpi)?
**A.** The value was 6 10^3/mm^3 and 3 10^3/mm^3 and 5 10^3/mm^3 (2×) and 3.75 10^3/mm^3 and 2.75 10^3/mm^3.

**Q.** What about the “Cells/ml, white blood cells” value ([1]; prophylactic group, 14 dpi) of the same compound?
**A.** The value was 3.00E+06 Cells/ml and 5.00E+06 Cells/ml (2×) and 3.75E+06 Cells/ml and 2.75E+06 Cells/ml and 6.00E+06 Cells/ml.

**Q.** And the “Counted Cells (Total), white blood cells” value ([1]; prophylactic group, 14 dpi)?
**A.** Its value is 24 and 12 and 20 (2×) and 15 and 11.

**Q.** What about the “Cells [10^3/mm^3], white blood cells” value ([1]; prophylactic group, 17 dpi) of the same compound?
**A.** Its value is 4.75 10^3/mm^3 and 5.25 10^3/mm^3 and 5.5 10^3/mm^3 and 3.25 10^3/mm^3 and 6.5 10^3/mm^3 and 2.25 10^3/mm^3.

**Q.** What about the “Cells/ml, white blood cells” value ([1]; prophylactic group, 17 dpi) of the same compound?
**A.** The value was 5.25E+06 Cells/ml and 5.50E+06 Cells/ml and 3.25E+06 Cells/ml and 6.50E+06 Cells/ml and 2.25E+06 Cells/ml and 4.75E+06 Cells/ml.

**Q.** What about the “Counted Cells (Total), white blood cells” value ([1]; prophylactic group, 17 dpi) of the same compound?
**A.** Its value is 19 and 21 and 22 and 13 and 26 and 9.

**Q.** What about the “Cells [10^3/mm^3], white blood cells” value ([1]; prophylactic group, 21 dpi) of the same compound?
**A.** The value was 5.25 10^3/mm^3 and 3.5 10^3/mm^3 and 7.75 10^3/mm^3 and 2.25 10^3/mm^3 (2×) and 5 10^3/mm^3.

From paper PMC8413292, “Small-molecule polymerase inhibitor protects non-human primates from measles and reduces shedding” (Nature Communications, 2021)
